From patent US20150272931A1, “New Treatment” (priority 2012, published 2015)

Tested on: sea lice (L. salmonis)
Assay: In-feed treatment of sea lice infested salmon: efficacy
Type: in vivo, Lepeophtheirus salmonis on Atlantic salmon
Conditions: for Reduction of total sea lice: adult sea lice, lice examined ten days after end of treatment
Source text: In-feed treatment of sea lice infested salmon with 5 different neonicotinoids (a) Method: Atlantic salmon (estimated mean weight 50-100 g) were batch weighed and allocated to a single 2 m diameter challenge tank. Fish were challenged with sea lice (L. salmonis) copepodids. Within one week of the successful lice challenge, fish were randomly allocated from the 2 m challenge tank to 1 m diameter treatment tanks so that each tank contained thirty fish.
Fish were maintained until lice developed to adult stages. This was monitored by periodic examination of fish from the control tank. There were five test compounds acetamiprid (A), clothianidin (B), imidacloprid (C), nitenpyram (D) plus a control (E), each compound was tested at three doses. Experimental diets were prepared by top dressing feed pellets with the powder formulation and sealing with fish oil. Once lice had developed to adult stages, fish in all tanks received an in-feed treatment according to the relevant group for a period of seven days. Uneaten feed was collected daily to estimate the mean dose achieved in each group. Fish were examined for lice ten days following the end of the treatment period.
Following the 7day treatment period, the mean sea lice count in the control group was 7±3 adult sea lice meaning the total of adult males, adult non-ovigerous females and adult ovigerous females.

[1] = dose 1 mg/kg/day in feed for 7 days
[2] = dose 5 mg/kg/day in feed for 7 days
[3] = dose 10 mg/kg/day in feed for 7 days

Compound	Reduction of total sea lice [1] [%]	Reduction of total sea lice [2] [%]	Reduction of total sea lice [3] [%]	sea lice reduction efficacy (at all three selected concentrations (10, 5, 1 mg/kg/day)) [%]	sea lice elimination (in-feed treatment, summary statement)
C/C(=N\C#N)N(C)Cc1ccc(Cl)nc1 [Acetamiprid, acetamiprid]	53	64	85		
CN/C(=N\[N+](=O)[O-])NCc1cnc(Cl)s1 [Clothianidin, (E)-1-(2-Chlor-1,3-thiazol-5-ylmethyl)-3-methyl-2-nitroguanidin]	90	98	99	≥ 90	full sea lice elimination
O=[N+]([O-])NC1=NCCN1Cc1ccc(Cl)nc1 [Imidacloprid, imidacloprid]	91	94	81		
CCN(Cc1ccc(Cl)nc1)/C(=C/[N+](=O)[O-])NC [Nitenpyram, nitenpyram]	48	89	89		
